Entries after “also recorded” stand apart in the source; their conditions may differ.
Tests used:
[1] = tested on: MDA-MB-231 cells; experiment: Membrane fluidity by EPR (S parameter), MDA-MB-231; assay type: cell-based, human; conditions: MDA-MB-231, pretreatment with non-cytotoxic dose
Method: (§1) Membrane fluidity was determined by a spin-labeling method using EPR, as previously described^27. Briefly, plasma membranes of living cells were labeled by incubating cells for 15 min at 37° C. with 12-doxyl stearic acid (36 μg/mL), a fatty acid with a stable nitroxide radical ring at the C-12 position. Cells were then washed twice with PBS to remove excess 12-doxyl stearic acid and EPR spectra of the labeled samples were acquired at ambient temperature on a Bruker Elexsys EPR spectrometer operating at 3509.25 G center field, 20 mW microwave power, 9.86 GHz microwave frequency, 1.77 G modulation amplitude, and 100 kHz modulation frequency. Fluidity of the spin-labeled membranes was quantified by calculating the S parameter. An increase in the S parameter reflects a decrease in membrane fluidity, and vice versa.

[2] = tested on: MDA-MB-231 cells; experiment: Boyden chamber cell migration, MDA-MB-231; assay type: cell-based, human; conditions: MDA-MB-231, pretreatment with non-cytotoxic dose, cl-CD95L
Method: (§2) Boyden chambers contained membranes with a pore size of 8 μm (Millipore, Molsheim, France). After hydration of the membranes, mesenchymal cells (10^5 cells per chamber) or epithelial cells (3×10^5 cells per chamber) were added to the top chamber in low serum (1%)-containing medium. The bottom chamber was filled with low serum (1%)-containing medium in the presence or absence of cl-CD95L (100 ng/mL). Cells were cultured for 24 h at 37° C. To quantify migration, cells were mechanically removed from the top side of the membrane using a cotton-tipped swab, and migrating cells from the reverse side were fixed with methanol and stained with Giemsa. For each experiment, five representative pictures were taken for each insert, then cells were lyzed and absorbance at 560 nm correlated to the amount of Giemsa stain was measured.

[3] = tested on: lung cancer cells; conditions: via activation of protein phosphatase 2A; cited from earlier work
[4] = tested on: mesenchymal breast cancer cells; experiment: Boyden chamber cell migration, mesenchymal breast cancer cells; assay type: cell-based, human; conditions: non-cytotoxic concentration; for basal migration: Boyden chamber 24 h; for CD95-mediated migration: cl-CD95L 100 ng/mL 24 h, Boyden chamber
Method: FIG. 1. Treatment of mesenchymal breast cancer cells with a non-toxic amount of exogenous C16:0 ceramide reduces plasma membrane fluidity and prevents basal and CD95-mediated cell migration. A. The indicated cells were pre-incubated with or without a non-cytotoxic dose (1 μM) of C16:0 ceramide (C16-Cer) for 60 min, and were then incubated with or without cl-CD95L (100 ng/mL) for 30 min. Membrane fluidity was assessed by EPR. Values are means±SEM of four independent experiments (*, p<0.05; ns, not significant). B. Indicated cells were pretreated with or without C16:0 ceramide ([…]) for 60 min and were then incubated with or without cl-CD95L (100 ng/mL) for 24 h. Cell migration was assessed by the Boyden chamber assay. Bars=70 μm. Giemsa-stained cells that migrated to the lower side of the membrane were lysed and absorbance at 560 nm was recorded. Values represent the means and SEM of three independent experiments (*p<0.05).
as §2

[5] = tested on: CD95-mediated PI3K signaling pathway; experiment: Akt serine 473 phosphorylation (CD95-mediated PI3K signaling); assay type: cell-based
Method: Cells were lyzed for 30 min at 4° C. in lysis buffer (25 mM HEPES pH 7.4, 1% (v/v) Triton X-100, 150 mM NaCl, and 2 mM EGTA supplemented with a mixture of protease inhibitors). Protein concentration was determined by the bicinchoninic acid method (Pierce, Rockford, Ill., USA) according to the manufacturer's protocol. Proteins were resolved by 8, 10, or 12% SDS-PAGE and transferred to a nitrocellulose membrane (GE Healthcare, Buckinghamshire, UK). The membrane was blocked for 15 min with TBST (50 mM Tris, 160 mM NaCl, and 0.05% (v/v) Tween 20, pH 7.4) containing 5% (w/v) dried skimmed milk (TBSTM), and was then incubated overnight at 4° C. with the primary antibody diluted in TBSTM. The membrane was washed with TBST and was then incubated with peroxidase-labeled anti-mouse IgG1 or IgG2a (CliniSciences, Nanterre, France) for 45 min. Proteins were visualized using the enhanced chemiluminescence substrate kit (ECL RevelBlOt®, Ozyme, Saint Quentin en Yvelines, France).

[6] = tested on: mesenchymal breast cancer cells; experiment: Cytotoxicity of exogenous C16:0 ceramide; assay type: cell-based, human; conditions: 1 μM
[7] = tested on: mesenchymal breast cancer cells; experiment: Membrane fluidity by EPR, mesenchymal breast cancer cells; assay type: cell-based, human; conditions: for CD95-mediated increase in membrane fluidization: 1 μM pre-incubation 60 min, then cl-CD95L 100 ng/mL 30 min
Method: FIG. 1. Treatment of mesenchymal breast cancer cells with a non-toxic amount of exogenous C16:0 ceramide reduces plasma membrane fluidity and prevents basal and CD95-mediated cell migration. A. The indicated cells were pre-incubated with or without a non-cytotoxic dose (1 μM) of C16:0 ceramide (C16-Cer) for 60 min, and were then incubated with or without cl-CD95L (100 ng/mL) for 30 min. Membrane fluidity was assessed by EPR. Values are means±SEM of four independent experiments (*, p<0.05; ns, not significant). B. Indicated cells were pretreated with or without C16:0 ceramide ([…]) for 60 min and were then incubated with or without cl-CD95L (100 ng/mL) for 24 h. Cell migration was assessed by the Boyden chamber assay. Bars=70 μm. Giemsa-stained cells that migrated to the lower side of the membrane were lysed and absorbance at 560 nm was recorded. Values represent the means and SEM of three independent experiments (*p<0.05). Membrane fluidity was determined by a spin-labeling method using EPR, as previously described^27. Briefly, plasma membranes of living cells were labeled by incubating cells for 15 min at 37° C. with 12-doxyl stearic acid (36 μg/mL), a fatty acid with a stable nitroxide radical ring at the C-12 position. Cells were then washed twice with PBS to remove excess 12-doxyl stearic acid and EPR spectra of the labeled samples were acquired at ambient temperature on a Bruker Elexsys EPR spectrometer operating at 3509.25 G center field, 20 mW microwave power, 9.86 GHz microwave frequency, 1.77 G modulation amplitude, and 100 kHz modulation frequency. Fluidity of the spin-labeled membranes was quantified by calculating the S parameter. An increase in the S parameter reflects a decrease in membrane fluidity, and vice versa.

[8] = tested on: epithelial cell line MCF7; experiment: Membrane fluidity by EPR, MCF7; assay type: cell-based, human; conditions: MCF7, non-cytotoxic concentration, 48 hours
Method: as §1

[9] = tested on: epithelial cell line MCF7; experiment: Boyden chamber cell migration, MCF7; assay type: cell-based, human; conditions: MCF7, non-cytotoxic concentration
Method: as §2

[10] = tested on: CerS; conditions: cited from earlier work
[11] = tested on: NMuMG cells; conditions: cited from earlier work

CCCCCCCCC1CC1CCCCCCCC(=O)OCCOCCOC (centres unmarked) [A2C]
basal membrane fluidity [1]: significantly enhanced
CD95-mediated increase in plasma membrane fluidity ([1]; then cl-CD95L): significantly enhanced
CD95-mediated migration [2]: stimulated

CCCCCCCCCCCCC/C=C/[C@@H](O)[C@H](CO)NC(C)=O [C2-ceramide]
migration of lung cancer cells in response to nicotine [3]: inhibit

CCCCCCCCCCCCC/C=C/[C@@H](O)[C@H](CO)NC(=O)CCCCCCCCCCCCCCC [C16-ceramide, N-palmitoyl-D-sphingosine]
basal migration [4]: impaired
basal migration ([4]; listed as C16:0 ceramide): prevents
CD95-mediated migration [4]: impaired; also recorded: inhibited
CD95-mediated migration ([4]; listed as C16:0 ceramide): prevents
CD95-mediated PI3K signaling pathway (phosphorylation at serine 473 of Akt) [5]: did not affect
cytotoxicity [6]: non-cytotoxic
CD95-mediated increase in membrane fluidization [7]: inhibited
CD95-mediated increase in membrane fluidization ([7]; listed as C16:0 ceramide): completely inhibited
basal S parameter ([7]; non-cytotoxic concentration (1 μM), increase in S = decrease in fluidity): slightly increased
plasma membrane fluidity ([7]; non-toxic amount of exogenous C16:0 ceramide): reduces

CCCC[C@@H](C)[C@@H](OC(=O)C[C@@H](CC(=O)O)C(=O)O)[C@H](C[C@@H](C)C[C@H](O)CCCC[C@@H](O)C[C@H](O)[C@H](C)N)OC(=O)C[C@@H](CC(=O)O)C(=O)O [FB1, Fumonisin B1]
CD95-induced membrane fluidity [8]: slightly, but significantly, increased
basal membrane fluidity [8]: slightly, but significantly, increased
CD95-mediated cell migration [9]: enhanced
basal cell migration [9]: enhanced
CerS activity [10]: selectively inhibits

gangliotetraosylceramide [Gg4]
reversal of TGF-β-induced EMT [11]: does

Source: patent US9851358B2, “Methods and pharmaceutical compositions for preventing or reducing metastatic dissemination” (INSERM (Institut National de la Sante et de la Recherche …, priority 2014, dated 2017)
